Measured values from US10021881B2, “Vaporized administration of pesticides” (priority 2016, dated 2018).

Legend:
[1] = system: Penicillium digitatum; test: In vivo assay of vaporized pyrimethanil to inhibit Penicillium digitatum in oranges
Procedure: An in vivo assay was used to evaluate the ability of vaporized pyrimethanil to control pathogenic infection of oranges by Penicillium digitatum. […] Each wound was then inoculated with 30 μL of 1×10^6 spores/mL suspension of P. digitatum.
Fruits were evaluated in order to observe growth of water-soaked lesions and fungal sporulation diameter (both measured in millimeters, mm).

[2] = system: Botrytis cinerea; test: In vivo assay of vaporized pyrimethanil to inhibit Botrytis cinerea in blueberries; conditions: for Gray Mold Severity (0-4): scale 0 no disease to 4 exceptionally high
Description: An in vivo assay was used to evaluate the ability of vaporized pyrimethanil to control pathogenic infection of blueberries by Botrytis cinerea.

[3] = system: Penicillium expansum; test: Fogging versus vaporizing treatment of apples, browning of top and bottom wounds; assay type: in vivo; conditions: 2.66 g in tunnel, 72 hours at 21° C., evaluated 4 days after removal, FIG. 23
Procedure: An in vivo assay was used to evaluate the ability of vaporized pyrimethanil to control pathogenic infection of apples by Penicillium expansum as compared to fogging methods of apple treatment. Vaporized treatments of apples were performed as previous described in Examples 1-6, with the exception of using a 1 m wide×1 m high×8 m deep tunnel (FIG. 11). A 2.66 g amount of pyrimethanil was either fogged or vaporized into the tunnel. Fruits were exposed to the treatment for 72 hours at 21° C., and then removed from the tunnel and evaluated 4 days after removal in order to observe and/or determine the area of browning wounds at the top and bottom of the fruit (see FIG. 23).

[4] = system: Glomerella cingulata; test: In vitro assay of vaporized pyrimethanil to inhibit pathogenic fungal growth (agar plates); assay type: cell-based; conditions: G. cingulata, 3 days at 23° C.
Procedure: (§1) An in vitro assay was used to evaluate the ability of pyrimethanil to vaporize in order to control the infection of various pathogenic microorganisms when applied to the plants and plant parts. For in vitro experiments, a 12-well microtiter plate, 6-well, or a 10-cm Petri plates each containing 7.5 ml, 16.5 or 22 ml volumes, respectively, of half strength Potato Dextrose Agar (PDA) were prepared. Each well or plate was inoculated with 1 microliter (μL) of 1×10^5 spores/ml of the appropriate pathogenic spore suspension (e.g., Botrytis cinerea, Penicillium expansum, Glomerella cingulata, Penicillium digitatum, Aspergillus flavus, Colletotrichum acutatum, Fusarium sambucinum, and Geotrichum candidum) by spotting the pathogen on the center of the agar well or plate. The inoculated microtiter or Petri plate was then sealed with a breathable film. One set of triplicate plates for each pathogen was placed inside the bottom of an air-tight 36-L desiccator chamber and closed with secure clamps.
(§2) Evaporation of the acetone left behind solid crystals of pyrimethanil.
(§3) The tube of the device was attached to a port on the side of the chamber that allowed airflow of the pyrimethanil vapor into the chamber. The chamber was at room temperature during administration of the pyrimethanil. The chambers were then incubated for three (3) days at 23° C. After incubation, post-treatment growth inhibition of each in vitro pathogen was measured on the inoculated plates and compared to control samples.

[5] = system: Penicillium digitatum; test: as above; assay type: cell-based; conditions: P. digitatum, 3 days at 23° C.
Procedure: as §1, §2, §3

[6] = system: Penicillium expansum; test: as above; assay type: cell-based; conditions: P. expansum, 3 days at 23° C.
Procedure: as §1, §2, §3

[7] = system: Aspergillus flavus; test: as above; assay type: cell-based; conditions: A. flavus, 3 days at 23° C.
Procedure: as §1, §2, §3

[8] = system: Colletotrichum acutatum; test: as above; assay type: cell-based; conditions: C. acutatum, 3 days at 23° C.
Procedure: as §1, §2, §3

[9] = system: Botrytis cinerea; test: as above; assay type: cell-based; conditions: B. cinerea, 3 days at 23° C.
Procedure: as §1, §2, §3

[10] = system: Fusarium sambucinum; test: as above; assay type: cell-based; conditions: F. sambucinum, 3 days at 23° C.
Procedure: as §1, §2, §3

[11] = system: Geotrichum candidum; test: as above; assay type: cell-based; conditions: G. candidum, 3 days at 23° C.
Procedure: as §1, §2, §3

[12] = 0.04 mg/L, Day 0 (after 3 days at 21° C.)
[13] = 0.04 mg/L, Day 1 (after 3 days at 21° C.)
[14] = 0.04 mg/L, Day 2 (after 3 days at 21° C.)
[15] = 0.2 mg/L, Day 0 (after 3 days at 21° C.)
[16] = 0.2 mg/L, Day 1 (after 3 days at 21° C.)
[17] = 0.2 mg/L, Day 2 (after 3 days at 21° C.)
[18] = 1 mg/L, Day 0 (after 3 days at 21° C.)
[19] = 1 mg/L, Day 1 (after 3 days at 21° C.)
[20] = 1 mg/L, Day 2 (after 3 days at 21° C.)
[21] = 0.01 mg/L, Day 0 (after 3 days at 21° C.)
[22] = 0.01 mg/L, Day 1 (after 3 days at 21° C.)
[23] = 0.01 mg/L, Day 2 (after 3 days at 21° C.)
[24] = 0.01 mg/L, Day 3 (after 3 days at 21° C.)
[25] = 0.03 mg/L, Day 0 (after 3 days at 21° C.)
[26] = 0.03 mg/L, Day 1 (after 3 days at 21° C.)
[27] = 0.03 mg/L, Day 2 (after 3 days at 21° C.)
[28] = 0.03 mg/L, Day 3 (after 3 days at 21° C.)
[29] = 0.1 mg/L, Day 0 (after 3 days at 21° C.)
[30] = 0.1 mg/L, Day 1 (after 3 days at 21° C.)
[31] = 0.1 mg/L, Day 2 (after 3 days at 21° C.)
[32] = 0.1 mg/L, Day 3 (after 3 days at 21° C.)
[33] = 0.3 mg/L, Day 0 (after 3 days at 21° C.)
[34] = 0.3 mg/L, Day 1 (after 3 days at 21° C.)
[35] = 0.3 mg/L, Day 2 (after 3 days at 21° C.)
[36] = 0.3 mg/L, Day 3 (after 3 days at 21° C.)

Cc1cc(C)nc(Nc2ccccc2)n1 [pyrimethanil, 4,6-Dimethyl-N-phenylpyrimidin-2-amine]
Fungal Sporulation (mm) [1, 12]: 1.1 mm
Water soaked Lesion (mm) [1, 12]: 0.0 mm
Fungal Sporulation (mm) [1, 13]: 1.4 mm
Water soaked Lesion (mm) [1, 13]: 0.0 mm
Fungal Sporulation (mm) [1, 14]: 2.1 mm
Water soaked Lesion (mm) [1, 14]: 0.0 mm
Fungal Sporulation (mm) [1, 15]: 0.6 mm
Water soaked Lesion (mm) [1, 15]: 0.0 mm
Fungal Sporulation (mm) [1, 16]: 0.8 mm
Water soaked Lesion (mm) [1, 16]: 0.0 mm
Fungal Sporulation (mm) [1, 17]: 2.4 mm
Water soaked Lesion (mm) [1, 17]: 1.5 mm
Fungal Sporulation (mm) [1, 18]: 1.8 mm
Water soaked Lesion (mm) [1, 18]: 0.0 mm
Fungal Sporulation (mm) [1, 19]: 2.0 mm
Water soaked Lesion (mm) [1, 19]: 0.0 mm
Fungal Sporulation (mm) [1, 20]: 2.1 mm
Water soaked Lesion (mm) [1, 20]: 0.0 mm
Gray Mold Incidence (%) [2, 21]: 92.6%
Gray Mold Severity (0-4) [2, 21]: 0.9
Gray Mold Incidence (%) [2, 22]: 96.3%
Gray Mold Severity (0-4) [2, 22]: 1.1
Gray Mold Incidence (%) [2, 23]: 98.8%
Gray Mold Severity (0-4) [2, 23]: 1.4
Gray Mold Incidence (%) [2, 24]: 98.8%
Gray Mold Severity (0-4) [2, 24]: 2.1
Gray Mold Incidence (%) [2, 25]: 82.7%
Gray Mold Severity (0-4) [2, 25]: 0.7
Gray Mold Incidence (%) [2, 26]: 97.5%
Gray Mold Severity (0-4) [2, 26]: 1.1
Gray Mold Incidence (%) [2, 27]: 97.5%
Gray Mold Severity (0-4) [2, 27]: 1.3
Gray Mold Incidence (%) [2, 28]: 97.5%
Gray Mold Severity (0-4) [2, 28]: 1.7
Gray Mold Incidence (%) [2, 29]: 64.2%
Gray Mold Severity (0-4) [2, 29]: 0.5
Gray Mold Incidence (%) [2, 30]: 87.8%
Gray Mold Severity (0-4) [2, 30]: 0.9
Gray Mold Incidence (%) [2, 31]: 94.8%
Gray Mold Severity (0-4) [2, 31]: 1.1
Gray Mold Incidence (%) [2, 32]: 94.6%
Gray Mold Severity (0-4) [2, 32]: 1.7
Gray Mold Incidence (%) [2, 33]: 22.2%
Gray Mold Severity (0-4) [2, 33]: 0.2
Gray Mold Incidence (%) [2, 34]: 33.8%
Gray Mold Severity (0-4) [2, 34]: 0.2
Gray Mold Incidence (%) [2, 35]: 51.2%
Gray Mold Severity (0-4) [2, 35]: 0.3
Gray Mold Incidence (%) [2, 36]: 52.0%
Gray Mold Severity (0-4) [2, 36]: 0.3
browning at the bottom of the fruit, vaporized compared with fogged [3]: much less area (mm) of browning
browning on the top of the fruit, vaporized compared with fogged [3]: comparable browning
Mycelial Growth Inhibition (%) ([4]; 0.1 mg/L headspace): 31.5%
Mycelial Growth Inhibition (%) ([4]; 0.3 mg/L headspace): 62.1%
Mycelial Growth Inhibition (%) ([4]; 1 mg/L headspace): 77.3%
Mycelial Growth Inhibition (%) ([5]; 0.1 mg/L headspace): 100.0%
Mycelial Growth Inhibition (%) ([5]; 0.3 mg/L headspace): 100.0%
Mycelial Growth Inhibition (%) ([5]; 1 mg/L headspace): 100.0%
Mycelial Growth Inhibition (%) ([6]; 0.1 mg/L headspace): 92.4%
Mycelial Growth Inhibition (%) ([6]; 0.3 mg/L headspace): 100.0%
Mycelial Growth Inhibition (%) ([6]; 1 mg/L headspace): 100.0%
Mycelial Growth Inhibition (%) ([7]; 0.1 mg/L headspace): 100.0%
Mycelial Growth Inhibition (%) ([7]; 0.3 mg/L headspace): 100.0%
Mycelial Growth Inhibition (%) ([7]; 1 mg/L headspace): 100.0%
Mycelial Growth Inhibition (%) ([8]; 0.1 mg/L headspace): 100.0%
Mycelial Growth Inhibition (%) ([8]; 0.3 mg/L headspace): 90.0%
Mycelial Growth Inhibition (%) ([8]; 1 mg/L headspace): 89.7%
Mycelial Growth Inhibition (%) ([9]; 0.1 mg/L headspace): 91.9%
Mycelial Growth Inhibition (%) ([9]; 0.3 mg/L headspace): 92.1%
Mycelial Growth Inhibition (%) ([9]; 1 mg/L headspace): 95.2%
Mycelial Growth Inhibition (%) ([10]; 0.1 mg/L headspace): 58.3%
Mycelial Growth Inhibition (%) ([10]; 0.3 mg/L headspace): 89.4%
Mycelial Growth Inhibition (%) ([10]; 1 mg/L headspace): 92.2%
Mycelial Growth Inhibition (%) ([11]; 0.1 mg/L headspace): 57.8%
Mycelial Growth Inhibition (%) ([11]; 0.3 mg/L headspace): 73.1%
Mycelial Growth Inhibition (%) ([11]; 1 mg/L headspace): 75.2%
